We go through two molecules from US10399950B2, “Substituted amino azoles as plant growth regulators” (SYNGENTA PARTICIPATIONS AG, priority 2013, dated 2019).

Some results are limits rather than exact numbers.

Data set [1] deals with Wheat (Triticum aestivum) seeds of the variety Arina. Kind of data set: Wheat assay: plant (root and shoot) area and curliness of the roots. Format: in vivo. As to conditions: seeds in pouches with 10 mL compound solution; scanned twelve days after sowing/application. As to the method:
Two bioassays were developed in order to assay the activity of the compounds of the present invention. In the first assay, the activity of the compound was quantified in beans based on its effect on the elongation of the petiole of the second leaf. In the second assay, the compound's effect on the root growth of wheat was determined. The test compounds were dissolved in small volumes of dimethyl sulfoxide and diluted to the appropriate concentration with water. Wheat (Triticum aestivum) seeds of the variety Arina were sown in pouches (14.7×13.2 cm) containing 10 mL of the appropriate compound solution. The pouches were stored at 17° C. for three days to enable the seeds to germinate. Plants were then stored at 5° C. Twelve days after sowing/application, plants were removed from the pouches and scanned. The effect of the compounds was quantified by determining plant (root and shoot) area and curliness of the roots (curliness is an indicator of brassinosteroid-type activity).

Data set [2] deals with T1, Arabidopsis BIN2 kinase (Uniprot Q39011), His6-BIN2 (Arabidopsis thaliana, UniProt Q39011).
T1 construct: made in house; host or cells: E. coli BL21
T1 sequence (Q39011 1-380): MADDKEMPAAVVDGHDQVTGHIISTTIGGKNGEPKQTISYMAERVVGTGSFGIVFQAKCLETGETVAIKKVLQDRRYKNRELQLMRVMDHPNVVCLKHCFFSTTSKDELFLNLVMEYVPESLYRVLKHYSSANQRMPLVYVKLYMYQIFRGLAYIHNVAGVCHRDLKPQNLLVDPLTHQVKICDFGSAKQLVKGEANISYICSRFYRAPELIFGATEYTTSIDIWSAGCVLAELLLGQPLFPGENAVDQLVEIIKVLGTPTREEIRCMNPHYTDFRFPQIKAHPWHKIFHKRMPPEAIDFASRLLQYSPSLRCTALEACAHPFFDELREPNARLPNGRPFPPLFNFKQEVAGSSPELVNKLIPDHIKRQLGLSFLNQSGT
Kind of data set: In vitro assay for inhibition of plant GSK3/shaggy-like kinase activity (ADP-Glo). Format: biochemical. As to conditions: compounds at 5 μM; 5 μM ATP; myelin basic protein substrate; 1 h at 20° C.; triplicate; read-out: inhibition of the activity of His6-BIN2 relative to the solvent vehicle control. The protocol: Arabidopsis BIN2 kinase (Uniprot Q39011) was produced in E. coli BL21 as an N-terminal hexahistidine fusion protein. In vitro kinase assays were performed by incubating 50 ng His6-BIN2 protein with 5 μg myelin basic protein (Sigma-Aldrich) as substrate and 5 μM ATP as co-substrate in reaction buffer consisting of 40 mM Tris-HCl, 20 mM MgCl2 and 0.1 mg/mL bovine serum albumin in a final reaction volume of 50 μl. Enzyme activity was assessed in the absence and presence of compounds (described in Tables A and B) at 5 μM by measuring the level of ADP produced after incubation for 1 h at 20° C. using an enzyme-coupled bioluminescent assay (ADP-Glo, Promega Corp.). The experiment was performed in triplicate and principaly on the acid form (as it the active A1).
(In ADP-Glo the light output rises with the ADP produced.)

On to `COC(=O)CCC(=O)Nc1ncc(C#N)s1` [A1, Methyl 4-[(5-cyanothiazol-2-yl)amino]-4-oxo-butanoate], for which the melting point lay within 118 to 119 °C. Also, the “curliness of the roots (indicator of brassinosteroid-type activity)” value in data set [1] is reported as “curly root phenotype”.
For `N#Cc1cnc(NC(=O)CCC(=O)O)s1` [A5, 4-[(5-cyanothiazol-2-yl)amino]-4-oxo-butanoic acid], the “curliness of the roots (indicator of brassinosteroid-type activity)” value in data set [1] is listed as “curly root phenotype”. For the same molecule, the inhibition at 5 µM in data set [2] is at least 20%.

What is called melting point is the temperature of the solid-liquid transition. Usually inhibition stands for the change of the read-out against control, counted positive when it falls.
